Source: patent US11186564B2, “Dual NAV1.2/5HT2a inhibitors for treating CNS disorders” (Sunovion Pharmaceuticals Inc., priority 2016, dated 2021)

Target: T1, recombinant human serotonin receptor 5-HT2A (Homo sapiens, UniProt P28223)
T1 construct: expressed in transfected cells; method B: loaded with Ca2+ dye
Assay: 5-HT2A antagonist Ca2+ assay in CHO-K1 cells (method A aequorin luminescence / method B FLIPR fluorescence)
Format: cell-based
Conditions: antagonist mode vs EC80 of reference agonist, method A or B, read-out: 5HT2A IC50
Text: The methods utilized to assess the inhibitory activity of compounds on recombinant human serotonin receptor 5-HT2A was based upon previously published approaches [Jerman J C, Brough S J, Gager T, Wood M, Coldwell M C, Smart D, Middlemiss D N. Pharmacological characterisation of human 5-HT2 receptor subtypes. European Journal of Pharmacology 2001 Feb. 23; 414(1):23-30; Le Poul E, Hisada S, Mizuguchi Y, Dupriez V J, Burgeon E, Detheux M. Adaptation of aequorin functional assay to high throughput screening. J Biomolecular Screening 2002 February; 7(1):57-65.] The 5-HT2A receptor signals through Gq-phospholipase signaling cascade, which leads to a transient increase in free intracellular […] concentration. Both 5-HT2A assay methods rely upon monitoring these changes in Ca^2+ concentration.
In method A [Le Poul E, Hisada S, Mizuguchi Y, Dupriez V J, Burgeon E, Detheux M. (2002)], CHO-K1 cells engineered to stably co-express both recombinant human 5-HT2A and mitochondrial apoaequorin are used. […] For agonist testing, 50 microliters of cell suspension is mixed with 50 microliters of a solution containing test compound or reference agonist in a 96-well standard geometry microtiter plate. The resulting emission of light was recorded using a Hamamatsu Functional Drug Screening System 6000 (FDSS 6000) luminometer. For antagonist testing, 100 microliters of the solution of reference agonist (to yield an agonist concentration, EC80, sufficient to cause the cells to generate an 80% maximal luminescence response in the absence of any antagonist) is injected into the mix of cells and test compound, 15 minutes after the first injection. The resulting emission of light is recorded using Hamamatsu FDSS 6000 luminometer. IC50 values are calculated (from compound concentration dependent inhibition of agonist-induced 5-HT2A-dependent light emission) by non-linear least squares regression of the data (percent inhibition) onto equation (1) above.
In method B [Jerman J C, Brough S J, Gager T, Wood M, Coldwell M C, Smart D, Middlemiss D N. (2001)], CHO-K1 cells which had been engineered to stably co-express recombinant human 5-HT2A are used in assay done similarly to method A. In method B, the cells are loaded with a fluorogenic Ca^2+ indicator dye by pre-incubation. Addition of the reference agonist serotonin causes a transient increase in fluorescence in a suspension of the loaded cells, which can be detected using the Molecular Devices fluorometric imaging plate reader (FLIPR), a high-throughput platform for 96-well cell-based assays. Addition of test compounds that are 5-HT2A antagonists, prior to the addition of the agonist (to yield an agonist concentration, EC80, sufficient to cause the cells to generate an 80% maximal fluorescence response in the absence of any antagonist), reduces the amount of fluorescence detected by the FLIPR upon agonist addition. IC50 values are calculated (from compound concentration dependent inhibition of agonist-induced 5-HT2A-dependent fluorescence) by non-linear least squares regression of the data (percent inhibition) onto equation (1) above.

T1 sequence (P28223 whole entry): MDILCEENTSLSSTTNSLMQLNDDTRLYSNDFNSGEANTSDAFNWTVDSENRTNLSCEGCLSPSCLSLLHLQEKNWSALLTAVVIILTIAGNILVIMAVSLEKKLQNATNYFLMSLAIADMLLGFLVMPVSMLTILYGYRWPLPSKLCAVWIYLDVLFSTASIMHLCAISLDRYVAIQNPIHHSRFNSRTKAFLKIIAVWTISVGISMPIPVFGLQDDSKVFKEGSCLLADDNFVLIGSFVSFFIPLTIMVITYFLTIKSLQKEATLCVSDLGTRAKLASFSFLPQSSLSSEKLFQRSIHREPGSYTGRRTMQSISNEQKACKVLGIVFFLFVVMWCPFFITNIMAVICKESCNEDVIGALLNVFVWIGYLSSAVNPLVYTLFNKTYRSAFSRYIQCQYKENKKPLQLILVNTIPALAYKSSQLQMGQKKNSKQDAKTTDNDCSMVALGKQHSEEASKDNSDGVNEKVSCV

SMILES | IC50
COc1ccccc1O[C@@H]1CCN(CC2Cc3cccnc3C2)[C@@H](C)C1 (stereo partly drawn) [Example 149, 6-(((2S,4R)-4-(2-methoxyphenoxy)-2-methylpiperidin-1-yl)methyl)-6,7-dihydro-5H-cyclopenta[b]pyridine] | 300 nM
COc1ccccc1OC1CCN(CC2(C)Cc3cccnc3C2)CC1 (stereo not shown) [Example 151, 6-((4-(2-methoxyphenoxy)piperidin-1-yl)methyl)-6-methyl-6,7-dihydro-5H-cyclopenta[b]pyridine] | > 10000 nM
COCc1cccc(OC2CCN(CC3Cc4cccnc4C3)CC2)c1 (stereo not shown) [Example 152, 6-((4-(3-(methoxymethyl)phenoxy)piperidin-1-yl)methyl)-6,7-dihydro-5H-cyclopenta[b]pyridine] | 220 nM
COc1cccc(OC2CCN(CC3Cc4cccnc4C3)CC2)c1 (stereo not shown) [Example 153, 6-((4-(3-methoxyphenoxy)piperidin-1-yl)methyl)-6,7-dihydro-5H-cyclopenta[b]pyridine] | 760 nM
N#Cc1ccc(OC2CCN(CC3Cc4cccnc4C3)CC2)cc1 (stereo not shown) [Example 156, 4-((1-((6,7-dihydro-5H-cyclopenta[b]pyridin-6-yl)methyl)piperidin-4-yl)oxy) benzonitrile] | 2010 nM
c1cnc(OC2CCN(CC3Cc4cccnc4C3)CC2)nc1 (stereo not shown) [Example 157, 6-((4-(pyrimidin-2-yloxy)piperidin-1-yl)methyl)-6,7-dihydro-5H-cyclopenta[b]pyridine] | > 10000 nM
COCc1cccc(OC2CCN(CC3CCOc4ccccc43)CC2)c1 (stereo not shown) [Example 163, 1-(chroman-4-ylmethyl)-4-(3-(methoxymethyl)phenoxy)piperidine] | 260 nM
COc1cccc(OC2CCN(CC3CCOc4ccccc43)CC2)c1 (stereo not shown) [Example 164, 1-(chroman-4-ylmethyl)-4-(3-methoxyphenoxy)piperidine] | 860 nM
COc1ccccc1O[C@H]1CCN(CCC2CCOc3ccccc32)[C@@H](C)C1 (stereo partly drawn) [Example 181, (2S,4S)-1-(2-(chroman-4-yl)ethyl)-4-(2-methoxyphenoxy)-2-methylpiperidine] | > 10000 nM
CC1Cc2ccccc2C(=O)N1CCN1CCC(Oc2cccc(Cl)c2)CC1 (stereo not shown) [Example 198, 2-(2-(4-(3-chlorophenoxy)piperidin-1-yl)ethyl)-3-methyl-3,4-dihydroisoquinolin-1(2H)-one] | 410 nM
O=C1c2ccccc2CCN1CCN1CCC(Oc2ccncc2)CC1 [Example 199, 2-(2-(4-(pyridin-4-yloxy)piperidin-1-yl)ethyl)-3,4-dihydroisoquinolin-1(2H)-one] | > 8700 nM
CC(CN1CCc2ccccc2C1=O)N1CCC(Oc2ccc(F)cc2)CC1 (stereo not shown) [Example 204, 2-(2-(4-(4-fluorophenoxy)piperidin-1-yl)propyl)-3,4-dihydroisoquinolin-1(2H)-one] | 560 nM
c1ccc(CCN2CCC(Oc3ccccc3)CC2)cc1 [Example 214, 1-phenethyl-4-phenoxypiperidine] | 40 nM
COC(CCN1CCC(Oc2ccccc2)CC1)c1ccccc1 (stereo not shown) [Example 226, 1-(3-methoxy-3-phenylpropyl)-4-phenoxypiperidine] | 20 nM
c1ccc(OCCN2CCC(Oc3ccc4cccnc4c3)CC2)cc1 [Example 231, 7-((1-(2-phenoxyethyl)piperidin-4-yl)oxy)quinoline] | 790 nM
O[C@H](COC1CCCCC1)CN1CCC(Oc2ccccc2)CC1 [Example 233, (S)-1-(cyclohexyloxy)-3-(4-phenoxypiperidin-1-yl)propan-2-ol] | 50 nM
O[C@@H](COC1CCCCC1)CN1CCC(Oc2ccccc2)CC1 [Example 234, (R)-1-(cyclohexyloxy)-3-(4-phenoxypiperidin-1-yl)propan-2-ol] | 30 nM
OC(COC1COCc2ccccc21)CN1CCC(Oc2ccccc2)CC1 (stereo not shown) [Example 239, 1-(isochroman-4-yloxy)-3-(4-phenoxypiperidin-1-yl)propan-2-ol] | 3510 nM
COc1cccc(COC2CCN(CC3CCc4ccc(OC)cc43)CC2)c1 (stereo not shown) [Example 245, 1-((6-methoxy-2,3-dihydro-1H-inden-1-yl)methyl)-4-((3-methoxybenzyl)oxy)piperidine] | 410 nM

SMILES | IC50
COc1ccc2c(c1)C(CN1CCC(OCc3cccnc3)CC1)CC2 (stereo not shown) [Example 246, 3-(((1-((6-methoxy-2,3-dihydro-1H-inden-1-yl)methyl)piperidin-4-yl)oxy)methyl)pyridine] | 980 nM
COc1ccc2c(c1)C(CN1CCC(OCc3ccncc3)CC1)CC2 (stereo not shown) [Example 248, 4-(((1-((6-methoxy-2,3-dihydro-1H-inden-1-yl)methyl)piperidin-4-yl)oxy)methyl)pyridine] | > 3160 nM
O=C1c2ccccc2CCN1CCN1CCOC(Cc2ccccc2)C1 (stereo not shown) [Example 252, 2-(2-(2-benzylmorpholino)ethyl)-3,4-dihydroisoquinolin-1(2H)-one] | > 16700 nM
COc1ccc2c(c1)C(CN1CCC[C@H](Oc3ccc(F)cc3)C1)CC2 (stereo partly drawn) [Example 256, (3S)-3-(4-fluorophenoxy)-1-((6-methoxy-2,3-dihydro-1H-inden-1-yl)methyl)piperidine] | 3990 nM
CC(C1CCc2ccccc21)N1CCC[C@H](Oc2ccc(F)cc2)C1 (stereo partly drawn) [Example 257, (3S)-1-(1-(2,3-dihydro-1H-inden-1-yl)ethyl)-3-(4-fluorophenoxy) piperidine] | > 10000 nM
OC1(CN2CCC[C@@H](Oc3ccc(F)cc3)C2)COCc2ccccc21 (stereo partly drawn) [Example 258, 4-(((R)-3-(4-fluorophenoxy)piperidin-1-yl)methyl)isochroman-4-ol] | 1500 nM
OC1(CN2CCC[C@H](Oc3ccc(F)cc3)C2)COCc2ccccc21 (stereo partly drawn) [Example 259, 4-(((S)-3-(4-fluorophenoxy)piperidin-1-yl)methyl)isochroman-4-ol] | > 13300 nM
Fc1ccc(O[C@@H]2CCCN(CC3COCc4ccccc43)C2)cc1 (stereo partly drawn) [Example 260, (3R)-3-(4-fluorophenoxy)-1-(isochroman-4-ylmethyl)piperidine] | 1810 nM
Fc1ccc(O[C@@H]2CCCN(CCC3CCOc4ccccc43)C2)cc1 (stereo partly drawn) [Example 262, (3R)-1-(2-(chroman-4-yl)ethyl)-3-(4-fluorophenoxy)piperidine] | 1630 nM
Fc1ccc(O[C@H]2CCCN(CCC3CCOc4ccccc43)C2)cc1 (stereo partly drawn) [Example 263, (3S)-1-(2-(chroman-4-yl)ethyl)-3-(4-fluorophenoxy)piperidine] | > 12900 nM
O=C1c2ccccc2CCN1CCN1CCC[C@@H](Oc2ccc(F)cc2)C1 [Example 264, (R)-2-(2-(3-(4-fluorophenoxy)piperidin-1-yl)ethyl)-3,4-dihydroisoquinolin-1(2H)-one] | 940 nM
O=C1c2ccccc2CCN1CCN1CCC[C@H](Oc2ccc(F)cc2)C1 [Example 265, (S)-2-(2-(3-(4-fluorophenoxy)piperidin-1-yl)ethyl)-3,4-dihydroisoquinolin-1(2H)-one] | > 13100 nM
O[C@H](COC1CCCCC1)CN1CCC[C@@H](Oc2ccc(F)cc2)C1 [Example 266, (S)-1-(cyclohexyloxy)-3-((R)-3-(4-fluorophenoxy)piperidin-1-yl)propan-2-ol] | > 12900 nM
O[C@@H](COC1CCCCC1)CN1CCC[C@@H](Oc2ccc(F)cc2)C1 [Example 267, (R)-1-(cyclohexyloxy)-3-((R)-3-(4-fluorophenoxy)piperidin-1-yl)propan-2-ol] | 10400 nM
O[C@H](COC1CCCCC1)CN1CCC[C@H](Oc2ccc(F)cc2)C1 [Example 268, (S)-1-(cyclohexyloxy)-3-((S)-3-(4-fluorophenoxy)piperidin-1-yl)propan-2-ol] | 2120 nM
O[C@@H](COC1CCCCC1)CN1CCC[C@H](Oc2ccc(F)cc2)C1 [Example 269, (R)-1-(cyclohexyloxy)-3-((S)-3-(4-fluorophenoxy)piperidin-1-yl)propan-2-ol] | 2170 nM
Fc1ccc(OC2CCCN(CC3Cc4cccnc4C3)CC2)cc1 (stereo not shown) [Example 273, 6-((4-(4-fluorophenoxy)azepan-1-yl)methyl)-6,7-dihydro-5H-cyclopenta[b]pyridine] | 20 nM
Fc1ccc(OC2COCCN(CC3COc4ccccc43)C2)cc1 (stereo not shown) [Example 278, 4-((2,3-dihydrobenzofuran-3-yl)methyl)-6-(4-fluorophenoxy)-1,4-oxazepane] | > 3160 nM
